Results on 26 compounds are retold here after patent US8829007B2 (priority 2009, dated 2014).

Assay [1] has as its system influenza A virus (A/PR/8/34). Kind of assay: microbe, parasite or virus in culture. It is filed as cell-based. Conditions: Influenza A virus, PR/8, MDCK, MDCK cells infected with A/PR/8/34, cell protection (CPE); read-out: IC50 (mean all).
Assay [2] has as its system A/PR/8/34 influenza virus. Kind of assay: microbe, parasite or virus in culture. Conditions: Influenza A virus, PR/8, MDCK, MDCK cells infected with A/PR/8/34, bDNA viral RNA; read-out: EC50 (mean all). It is filed as cell-based.

SMILES strings stand for the structures.

The IC50 is the point on the concentration scale where inhibition reaches its midpoint. A word on the EC50: it is the concentration needed to bring the measured effect to its halfway point. As to `CC(C)(CC(=O)O)CC(=O)N1CCC[C@H](CNc2nc(-c3c[nH]c4ncc(Cl)cc34)ncc2F)C1` [Compound 80, (R)-5-(3-((2-(5-chloro-1H-pyrrolo[2,3-b]pyridin-3-yl)-5-fluoropyrimidin-4-ylamino)methyl)piperidin-1-yl)-3,3-dimethyl-5-oxopentanoic acid], the IC50 in assay [1] is below 5 µM. Moreover, in assay [2], the EC50 is below 5 µM.
`O=C(O)CC1(CC(=O)N2CCC[C@H](CNc3nc(-c4c[nH]c5ncc(Cl)cc45)ncc3F)C2)CCCC1` [Compound 81, (R)-2-(1-(2-(3-((2-(5-chloro-1H-pyrrolo[2,3-b]pyridin-3-yl)-5-fluoropyrimidin-4-ylamino)methyl)piperidin-1-yl)-2-oxoethyl)cyclopentyl)ethanoic acid]: the 50% inhibitory concentration (IC50) in assay [1] is below 5 µM. The EC50 in assay [2] was below 5 µM.
Consider `O=C(c1ccccc1Cl)N1CCC[C@H](CNc2nc(-c3c[nH]c4ncc(Cl)cc34)ncc2F)C1` [Compound 84, (R)-(3-((2-(5-chloro-1H-pyrrolo[2,3-b]pyridin-3-yl)-5-fluoropyrimidin-4-ylamino)methyl)piperidin-1-yl)(2-chlorophenyl)methanone], for which, in assay [1], the IC50 is below 5 µM. In assay [2], the EC50 was below 5 µM.
Consider `O=C(c1ccc(F)c(F)c1)N1CCC[C@H](CNc2nc(-c3c[nH]c4ncc(Cl)cc34)ncc2F)C1` [Compound 85, (R)-(3-((2-(5-chloro-1H-pyrrolo[2,3-b]pyridin-3-yl)-5-fluoropyrimidin-4-ylamino)methyl)piperidin-1-yl)(3,4-difluorophenyl)methanone], for which the concentration for half-maximal inhibition (IC50) in assay [1] lay within 5 to 20 µM. Besides, the EC50 in assay [2] is below 5 µM.
For `O=C(c1cc(F)cc(F)c1)N1CCC[C@H](CNc2nc(-c3c[nH]c4ncc(Cl)cc34)ncc2F)C1` [Compound 86, (R)-(3-((2-(5-chloro-1H-pyrrolo[2,3-b]pyridin-3-yl)-5-fluoropyrimidin-4-ylamino)methyl)piperidin-1-yl)(3,5-difluorophenyl)methanone], the half-maximal inhibitory concentration (IC50) in assay [1] is below 5 µM. For the same compound, the EC50 in assay [2] is below 5 µM.
Take `O=S(=O)(c1ccccc1)N1CCC[C@H](CNc2nc(-c3c[nH]c4ncc(Cl)cc34)ncc2F)C1` [Compound 87, (R)-2-(5-chloro-1H-pyrrolo[2,3-b]pyridin-3-yl)-5-fluoro-N-((1-(phenylsulfonyl)piperidin-3-yl)methyl)pyrimidin-4-amine]: in assay [1], the IC50 is below 5 µM. Moreover, the EC50 in assay [2] is below 5 µM.
Take `O=S(=O)(c1cccs1)N1CCCC(CNc2nc(-c3c[nH]c4ncc(Cl)cc34)ncc2F)C1` (stereo not shown) [Compound 89]: the IC50 in assay [1] is below 5 µM. The EC50 in assay [2] is below 5 µM.
`O=S(=O)(c1ccccc1F)N1CCC[C@H](CNc2nc(-c3c[nH]c4ncc(Cl)cc34)ncc2F)C1` [Compound 90, (R)-2-(5-chloro-1H-pyrrolo[2,3-b]pyridin-3-yl)-5-fluoro-N-((1-(2-fluorophenylsulfonyl)piperidin-3-yl)methyl)pyrimidin-4-amine]: the half-inhibitory concentration (IC50) in assay [1] was below 5 µM. In addition, in assay [2], the EC50 is below 5 µM.
On to `Cn1cnc(S(=O)(=O)N2CCC[C@H](CNc3nc(-c4c[nH]c5ncc(Cl)cc45)ncc3F)C2)c1` [Compound 91, (R)-2-(5-chloro-1H-pyrrolo[2,3-b]pyridin-3-yl)-5-fluoro-N-((1-(1-methyl-1H-imidazol-4-ylsulfonyl)piperidin-3-yl)methyl)pyrimidin-4-amine], for which the IC50 in assay [1] is below 5 µM. In assay [2], the EC50 is below 5 µM.
For the compound `O=C(CCl)N1CCC[C@H](CNc2nc(-c3c[nH]c4ncc(Cl)cc34)ncc2F)C1` [Compound 92, (R)-2-chloro-1-(3-((2-(5-chloro-1H-pyrrolo[2,3-b]pyridin-3-yl)-5-fluoropyrimidin-4-ylamino)methyl)piperidin-1-yl)ethanone], the IC50 in assay [1] is below 5 µM. The EC50 in assay [2] was below 5 µM.
As to `CC(Cl)C(=O)N1CCC[C@H](CNc2nc(-c3c[nH]c4ncc(Cl)cc34)ncc2F)C1` (stereo partly drawn) [Compound 93, 2-chloro-1-((R)-3-((2-(5-chloro-1H-pyrrolo[2,3-b]pyridin-3-yl)-5-fluoropyrimidin-4-ylamino)methyl)piperidin-1-yl)propan-1-one], in assay [1], the IC50 was below 5 µM. The EC50 in assay [2] was below 5 µM.
Regarding `O=C(COc1ccccc1)N1CCC[C@H](CNc2nc(-c3c[nH]c4ncc(Cl)cc34)ncc2F)C1` [Compound 94, (R)-1-(3-((2-(5-chloro-1H-pyrrolo[2,3-b]pyridin-3-yl)-5-fluoropyrimidin-4-ylamino)methyl)piperidin-1-yl)-2-phenoxyethanone], the IC50 in assay [1] is below 5 µM. In assay [2], the EC50 was below 5 µM.
In the case of `O=C(C1CCCCC1)N1CCC[C@H](CNc2nc(-c3c[nH]c4ncc(Cl)cc34)ncc2F)C1` [Compound 95, (R)-(3-((2-(5-chloro-1H-pyrrolo[2,3-b]pyridin-3-yl)-5-fluoropyrimidin-4-ylamino)methyl)piperidin-1-yl)(cyclohexyl)methanone], the IC50 in assay [1] is below 5 µM. The EC50 in assay [2] is below 5 µM.
For the compound `O=C(c1cccs1)N1CCC[C@H](CNc2nc(-c3c[nH]c4ncc(Cl)cc34)ncc2F)C1` [Compound 97, (R)-(3-((2-(5-chloro-1H-pyrrolo[2,3-b]pyridin-3-yl)-5-fluoropyrimidin-4-ylamino)methyl)piperidin-1-yl)(thiophen-2-yl)methanone], in assay [1], the IC50 was below 5 µM. The EC50 in assay [2] is below 5 µM.
As for `O=C(Cc1ccc(F)cc1)N1CCC[C@H](CNc2nc(-c3c[nH]c4ncc(Cl)cc34)ncc2F)C1` [Compound 98, (R)-1-(3-((2-(5-chloro-1H-pyrrolo[2,3-b]pyridin-3-yl)-5-fluoropyrimidin-4-ylamino)methyl)piperidin-1-yl)-2-(4-fluorophenyl)ethanone], the IC50 in assay [1] is below 5 µM. Also, in assay [2], the concentration for a half-maximal effect (EC50) was below 5 µM.
For `O=C(C1CCCC1)N1CCC[C@H](CNc2nc(-c3c[nH]c4ncc(Cl)cc34)ncc2F)C1` [Compound 99, (R)-(3-((2-(5-chloro-1H-pyrrolo[2,3-b]pyridin-3-yl)-5-fluoropyrimidin-4-ylamino)methyl)piperidin-1-yl)(cyclopentyl)methanone], the IC50 in assay [1] is below 5 µM. Also, the EC50 in assay [2] is below 5 µM.
With `O=C(CC1CCCC1)N1CCC[C@H](CNc2nc(-c3c[nH]c4ncc(Cl)cc34)ncc2F)C1` [Compound 100, (R)-1-(3-((2-(5-chloro-1H-pyrrolo[2,3-b]pyridin-3-yl)-5-fluoropyrimidin-4-ylamino)methyl)piperidin-1-yl)-2-cyclopentylethanone], in assay [1], the IC50 is below 5 µM. For the same compound, the EC50 in assay [2] was below 5 µM.
With `O=C(c1cnccn1)N1CCC[C@H](CNc2nc(-c3c[nH]c4ncc(Cl)cc34)ncc2F)C1` [Compound 101, (R)-(3-((2-(5-chloro-1H-pyrrolo[2,3-b]pyridin-3-yl)-5-fluoropyrimidin-4-ylamino)methyl)piperidin-1-yl)(pyrazin-2-yl)methanone], in assay [1], the IC50 was below 5 µM. Also, the concentration for a half-maximal effect (EC50) in assay [2] is below 5 µM.
In the case of `O=C(c1ccco1)N1CCC[C@H](CNc2nc(-c3c[nH]c4ncc(Cl)cc34)ncc2F)C1` [Compound 102, (R)-(3-((2-(5-chloro-1H-pyrrolo[2,3-b]pyridin-3-yl)-5-fluoropyrimidin-4-ylamino)methyl)piperidin-1-yl)(furan-2-yl)methanone], the IC50 in assay [1] is below 5 µM. Moreover, in assay [2], the EC50 is below 5 µM.
For the compound `O=C(Cc1cccs1)N1CCC[C@H](CNc2nc(-c3c[nH]c4ncc(Cl)cc34)ncc2F)C1` [Compound 104, (R)-1-(3-((2-(5-chloro-1H-pyrrolo[2,3-b]pyridin-3-yl)-5-fluoropyrimidin-4-ylamino)methyl)piperidin-1-yl)-2-(thiophen-2-yl)ethanone], in assay [1], the IC50 was below 5 µM. The EC50 in assay [2] is below 5 µM.
For `CC(C)(C)C(=O)N1CCC[C@H](CNc2nc(-c3c[nH]c4ncc(Cl)cc34)ncc2F)C1` [Compound 105, (R)-1-(3-((2-(5-chloro-1H-pyrrolo[2,3-b]pyridin-3-yl)-5-fluoropyrimidin-4-ylamino)methyl)piperidin-1-yl)-2,2-dimethylpropan-1-one], the IC50 in assay [1] is below 5 µM. Further, the EC50 in assay [2] was below 5 µM.
On to `O=C(COCc1ccccc1)N1CCC[C@H](CNc2nc(-c3c[nH]c4ncc(Cl)cc34)ncc2F)C1` [Compound 106, (R)-2-(benzyloxy)-1-(3-((2-(5-chloro-1H-pyrrolo[2,3-b]pyridin-3-yl)-5-fluoropyrimidin-4-ylamino)methyl)piperidin-1-yl)ethanone], for which, in assay [1], the IC50 is below 5 µM. Moreover, in assay [2], the concentration giving a half-maximal response (EC50) is below 5 µM.
For `O=C(c1cc2ccccc2s1)N1CCC[C@H](CNc2nc(-c3c[nH]c4ncc(Cl)cc34)ncc2F)C1` [Compound 107, (R)-benzo[b]thiophen-2-yl(3-((2-(5-chloro-1H-pyrrolo[2,3-b]pyridin-3-yl)-5-fluoropyrimidin-4-ylamino)methyl)piperidin-1-yl)methanone], the IC50 in assay [1] was below 5 µM. For the same compound, the EC50 in assay [2] was below 5 µM.
As to `COc1ccc(C(=O)N2CCC[C@H](CNc3nc(-c4c[nH]c5ncc(Cl)cc45)ncc3F)C2)cc1OC` [Compound 109, (R)-(3-((2-(5-chloro-1H-pyrrolo[2,3-b]pyridin-3-yl)-5-fluoropyrimidin-4-ylamino)methyl)piperidin-1-yl)(3,4-dimethoxyphenyl)methanone], the half-maximal inhibitory concentration (IC50) in assay [1] is below 5 µM. Also, in assay [2], the EC50 was below 5 µM.
Take `CC(=O)OCC(=O)N1CCC[C@H](CNc2nc(-c3c[nH]c4ncc(Cl)cc34)ncc2F)C1` [Compound 110, (R)-2-(3-((2-(5-chloro-1H-pyrrolo[2,3-b]pyridin-3-yl)-5-fluoropyrimidin-4-ylamino)methyl)piperidin-1-yl)-2-oxoethyl ethanoate]: the IC50 in assay [1] was below 5 µM. Moreover, the EC50 in assay [2] was below 5 µM.
In the case of `CC(=O)N1CCC[C@H](CNc2nc(-c3c[nH]c4ncc(Cl)cc34)ncc2F)C1` [Compound 111, (R)-1-(3-((2-(5-chloro-1H-pyrrolo[2,3-b]pyridin-3-yl)-5-fluoropyrimidin-4-ylamino)methyl)piperidin-1-yl)ethanone], the IC50 in assay [1] was below 5 µM. Moreover, the EC50 in assay [2] was below 5 µM.
